Data on six cell lines can be found in the supplement of paper PMC10307832.

Holding throughout (experiment): relative viability (nuclei count vs DMSO), 5 days (fraction); higher = more cells survive
Compound in the assay “Kobe2602 + Trametinib”: C1=CC(=CC=C1NC(=S)NNC2=C(C=C(C=C2[N+](=O)[O-])C(F)(F)F)[N+](=O)[O-])F [Kobe2602] + CC(=O)Nc1cccc(-n2c(=O)n(C3CC3)c(=O)c3c(Nc4ccc(I)cc4F)n(C)c(=O)c(C)c32)c1 [Trametinib] (partner 0.02 µM)
In a few lines:
(§1)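 Five library-drug doses in √10 steps were combined with a fixed anchor-drug dose, or a single drug was given alone, by pin tool to lung cancer cell lines in 1536-well plates the day after seeding. Nuclei were stained and counted after 5 days. Relative viability is the nuclei count in treated wells over that in vehicle wells, taken as the median of duplicate plates.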

Compound in the assay “Kobe2602 + Pictilisib”: C1=CC(=CC=C1NC(=S)NNC2=C(C=C(C=C2[N+](=O)[O-])C(F)(F)F)[N+](=O)[O-])F [Kobe2602] + CS(=O)(=O)N1CCN(Cc2cc3nc(-c4cccc5[nH]ncc45)nc(N4CCOCC4)c3s2)CC1 [Pictilisib] (partner 1 µM)
Summed up: as §1

Compound in the assay “Cabozantinib + Alpelisib”: COc1cc2nccc(Oc3ccc(NC(=O)C4(C(=O)Nc5ccc(F)cc5)CC4)cc3)c2cc1OC [Cabozantinib] + Cc1nc(NC(=O)N2CCC[C@H]2C(N)=O)sc1-c1ccnc(C(C)(C)C(F)(F)F)c1 [Alpelisib] (partner 2 µM)
In a few lines: as §1

Compound in the assay “Zosuquidar + Phenformin”: O[C@@H](COc1cccc2ncccc12)CN1CCN([C@@H]2c3ccccc3[C@@H]3[C@H](c4ccccc42)C3(F)F)CC1 [Zosuquidar] + N=C(N)NC(=N)NCCc1ccccc1 [Phenformin] (partner 250 µM)
In a few lines:
as §1

With NCI-H1437, the relative viability with Kobe2602 + Trametinib (first compound 0.2 µM) was 0.458; in the assay with Kobe2602 + Trametinib (first compound 0.6325 µM), 0.463; with Kobe2602 + Trametinib (first compound 2 µM) it was 0.519; with Kobe2602 + Trametinib (first compound 6.325 µM), 0.603; in the assay with Kobe2602 + Trametinib (first compound 20 µM), 0.419; with Kobe2602 + Pictilisib (first compound 0.2 µM), 0.412. Moreover, the relative viability with Kobe2602 + Pictilisib (first compound 0.6325 µM) turned out to be 0.501; in the assay with Kobe2602 + Pictilisib (first compound 2 µM), 0.471; with Kobe2602 + Pictilisib (first compound 6.325 µM), 0.424; in the assay with Kobe2602 + Pictilisib (first compound 20 µM), 0.363; with Cabozantinib + Alpelisib (first compound 0.02 µM) it was 1.03; with Cabozantinib + Alpelisib (first compound 0.06325 µM), 1.03. Besides, the relative viability was 0.992 in the assay with Cabozantinib + Alpelisib (first compound 0.2 µM); 1.02 in the assay with Cabozantinib + Alpelisib (first compound 0.6325 µM); 0.934 with Cabozantinib + Alpelisib (first compound 2 µM); 0.31 with Zosuquidar + Phenformin (first compound 0.01 µM); 0.327 with Zosuquidar + Phenformin (first compound 0.03162 µM); 0.287 with Zosuquidar + Phenformin (first compound 0.1 µM). Further, the relative viability in the assay with Zosuquidar + Phenformin (first compound 0.3162 µM) came out at 0.313; with Zosuquidar + Phenformin (first compound 1 µM), 0.328.
For the cell line NCI-H1651, the relative viability with Kobe2602 + Trametinib (first compound 0.2 µM) turned out to be 0.822; with Kobe2602 + Trametinib (first compound 0.6325 µM), 0.827; with Kobe2602 + Trametinib (first compound 2 µM) it was 0.847; with Kobe2602 + Trametinib (first compound 6.325 µM) it was 0.87; in the assay with Kobe2602 + Trametinib (first compound 20 µM), 0.875; with Kobe2602 + Pictilisib (first compound 0.2 µM), 0.691. In addition, the relative viability in the assay with Kobe2602 + Pictilisib (first compound 0.6325 µM) was determined as 0.69; in the assay with Kobe2602 + Pictilisib (first compound 2 µM), 0.636; with Kobe2602 + Pictilisib (first compound 6.325 µM) it was 0.537; with Kobe2602 + Pictilisib (first compound 20 µM) it was 0.537; in the assay with Cabozantinib + Alpelisib (first compound 0.02 µM), 0.883; with Cabozantinib + Alpelisib (first compound 0.06325 µM) it was 0.998. In addition, the relative viability was 0.97 in the assay with Cabozantinib + Alpelisib (first compound 0.2 µM); 0.952 with Cabozantinib + Alpelisib (first compound 0.6325 µM); 0.728 with Cabozantinib + Alpelisib (first compound 2 µM); 0.314 in the assay with Zosuquidar + Phenformin (first compound 0.01 µM); 0.343 in the assay with Zosuquidar + Phenformin (first compound 0.03162 µM); 0.282 in the assay with Zosuquidar + Phenformin (first compound 0.1 µM). Besides, the relative viability worked out at 0.401 in the assay with Zosuquidar + Phenformin (first compound 0.3162 µM) and 0.307 with Zosuquidar + Phenformin (first compound 1 µM).
Consider NCI-H1666, for which the relative viability with Kobe2602 + Trametinib (first compound 0.2 µM) was found to be 0.824; with Kobe2602 + Trametinib (first compound 0.6325 µM) it was 0.836; with Kobe2602 + Trametinib (first compound 2 µM) it was 0.766; with Kobe2602 + Trametinib (first compound 6.325 µM) it was 0.89; with Kobe2602 + Trametinib (first compound 20 µM) it was 0.808; with Kobe2602 + Pictilisib (first compound 0.2 µM), 0.345. The relative viability is 0.5 with Kobe2602 + Pictilisib (first compound 0.6325 µM); 0.276 with Kobe2602 + Pictilisib (first compound 6.325 µM); 0.471 in the assay with Kobe2602 + Pictilisib (first compound 20 µM); 1.02 in the assay with Cabozantinib + Alpelisib (first compound 0.02 µM); 1.09 with Cabozantinib + Alpelisib (first compound 0.06325 µM); 0.924 in the assay with Cabozantinib + Alpelisib (first compound 0.2 µM). The relative viability with Cabozantinib + Alpelisib (first compound 0.6325 µM) was 0.972; in the assay with Cabozantinib + Alpelisib (first compound 2 µM) it was 1.03; in the assay with Zosuquidar + Phenformin (first compound 0.01 µM) it was 0.542; with Zosuquidar + Phenformin (first compound 0.03162 µM), 0.577; with Zosuquidar + Phenformin (first compound 0.1 µM), 0.571; with Zosuquidar + Phenformin (first compound 0.3162 µM), 0.584. Further, the relative viability with Zosuquidar + Phenformin (first compound 1 µM) was 0.521.
Consider NCI-H1734, for which the relative viability in the assay with Kobe2602 + Trametinib (first compound 0.2 µM) was found to be 0.618; with Kobe2602 + Trametinib (first compound 0.6325 µM), 0.77; with Kobe2602 + Trametinib (first compound 2 µM) it was 0.664; with Kobe2602 + Trametinib (first compound 6.325 µM), 0.711; in the assay with Kobe2602 + Trametinib (first compound 20 µM), 0.695; with Kobe2602 + Pictilisib (first compound 0.2 µM), 0.439. Further, the relative viability with Kobe2602 + Pictilisib (first compound 0.6325 µM) was 0.475; with Kobe2602 + Pictilisib (first compound 2 µM) it was 0.464; with Kobe2602 + Pictilisib (first compound 6.325 µM) it was 0.454; with Kobe2602 + Pictilisib (first compound 20 µM), 0.533; in the assay with Cabozantinib + Alpelisib (first compound 0.02 µM) it was 0.718; with Cabozantinib + Alpelisib (first compound 0.06325 µM) it was 0.681. The relative viability worked out at 0.717 with Cabozantinib + Alpelisib (first compound 0.2 µM); 0.654 with Cabozantinib + Alpelisib (first compound 0.6325 µM); 0.638 with Cabozantinib + Alpelisib (first compound 2 µM); 0.395 with Zosuquidar + Phenformin (first compound 0.01 µM); 0.372 with Zosuquidar + Phenformin (first compound 0.03162 µM); 0.407 in the assay with Zosuquidar + Phenformin (first compound 0.1 µM). For the same cell line, the relative viability with Zosuquidar + Phenformin (first compound 0.3162 µM) stood at 0.466; with Zosuquidar + Phenformin (first compound 1 µM), 0.385.
NCI-H1755: the relative viability with Kobe2602 + Trametinib (first compound 0.2 µM) was 0.825; with Kobe2602 + Trametinib (first compound 0.6325 µM) it was 0.728; with Kobe2602 + Trametinib (first compound 2 µM) it was 0.779; in the assay with Kobe2602 + Trametinib (first compound 6.325 µM) it was 0.766; in the assay with Kobe2602 + Trametinib (first compound 20 µM), 0.726; with Kobe2602 + Pictilisib (first compound 0.2 µM), 0.445. The relative viability is 0.476 with Kobe2602 + Pictilisib (first compound 0.6325 µM); 0.421 with Kobe2602 + Pictilisib (first compound 2 µM); 0.439 in the assay with Kobe2602 + Pictilisib (first compound 6.325 µM); 0.435 with Kobe2602 + Pictilisib (first compound 20 µM); 0.993 with Cabozantinib + Alpelisib (first compound 0.02 µM); 0.919 with Cabozantinib + Alpelisib (first compound 0.06325 µM). The relative viability came out at 0.882 in the assay with Cabozantinib + Alpelisib (first compound 0.2 µM); 0.877 in the assay with Cabozantinib + Alpelisib (first compound 0.6325 µM); 0.764 with Cabozantinib + Alpelisib (first compound 2 µM); 0.425 in the assay with Zosuquidar + Phenformin (first compound 0.01 µM); 0.621 in the assay with Zosuquidar + Phenformin (first compound 0.03162 µM); 0.489 in the assay with Zosuquidar + Phenformin (first compound 0.1 µM). Moreover, the relative viability with Zosuquidar + Phenformin (first compound 0.3162 µM) worked out at 0.624; in the assay with Zosuquidar + Phenformin (first compound 1 µM), 0.589.
On to NCI-H1792, for which the relative viability with Kobe2602 + Trametinib (first compound 0.2 µM) is 0.445; with Kobe2602 + Trametinib (first compound 0.6325 µM), 0.446; with Kobe2602 + Trametinib (first compound 2 µM), 0.401; in the assay with Kobe2602 + Trametinib (first compound 6.325 µM), 0.564; in the assay with Kobe2602 + Trametinib (first compound 20 µM), 0.366; in the assay with Kobe2602 + Pictilisib (first compound 0.2 µM) it was 0.24. Further, the relative viability was found to be 0.337 with Kobe2602 + Pictilisib (first compound 0.6325 µM); 0.389 with Kobe2602 + Pictilisib (first compound 2 µM); 0.252 with Kobe2602 + Pictilisib (first compound 6.325 µM); 0.303 in the assay with Kobe2602 + Pictilisib (first compound 20 µM); 0.721 with Cabozantinib + Alpelisib (first compound 0.02 µM); 0.799 with Cabozantinib + Alpelisib (first compound 0.06325 µM). The relative viability with Cabozantinib + Alpelisib (first compound 0.2 µM) is 0.721; with Cabozantinib + Alpelisib (first compound 0.6325 µM), 0.557; with Cabozantinib + Alpelisib (first compound 2 µM), 0.657; with Zosuquidar + Phenformin (first compound 0.01 µM) it was 0.35; in the assay with Zosuquidar + Phenformin (first compound 0.03162 µM) it was 0.287; in the assay with Zosuquidar + Phenformin (first compound 0.1 µM), 0.279. In addition, the results for the relative viability with Zosuquidar + Phenformin (first compound 0.3162 µM) and with Zosuquidar + Phenformin (first compound 1 µM) were 0.31 and 0.295, respectively.
